From ChEMBL document CHEMBL1201862, “PubChem BioAssay data set” (2004) come the findings set out here.

Active and inactive are the calls of the source. Positions of bridges follow the written chain, without caps; N, C: chain ends. Non-standard residues stand in square brackets, D forms with d. Residues, ends and D or L forms follow the SMILES beside them. *: point of attachment. X1 = CCC(C)C(N)C1=NC(C(=O)*)CS1; dOrn = NCCC[C@@H](N)C(=O)O

For assay [1], the system named is Jurkat. The assay is described as follows: antigen receptor-induced NF-kB inhibitors, dose response, Jurkat, luciferase reporter, luminescence, B- and T-cell (AID 489004).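 Further: NF-kB luciferase reporter Jurkat cells stimulated with PMA plus ionomycin.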 As to conditions: Homo sapiens. Type of assay: functional, cell-based.
Assay [2] in a line: cytotoxicity in HEK-293T NF-kB-Luc cells, dose response, cytotoxicity control for B/T-cell NF-kB inhibitor project, cell-based, uHTS hits (AID 489019).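 Further: IC50 reflects cytotoxicity as loss of cell viability.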 The format is functional.
Assay [3] addresses T1, Hexokinase HKDC1 (Homo sapiens, UniProt Q2TB90).
T1 sequence (Q2TB90 whole entry): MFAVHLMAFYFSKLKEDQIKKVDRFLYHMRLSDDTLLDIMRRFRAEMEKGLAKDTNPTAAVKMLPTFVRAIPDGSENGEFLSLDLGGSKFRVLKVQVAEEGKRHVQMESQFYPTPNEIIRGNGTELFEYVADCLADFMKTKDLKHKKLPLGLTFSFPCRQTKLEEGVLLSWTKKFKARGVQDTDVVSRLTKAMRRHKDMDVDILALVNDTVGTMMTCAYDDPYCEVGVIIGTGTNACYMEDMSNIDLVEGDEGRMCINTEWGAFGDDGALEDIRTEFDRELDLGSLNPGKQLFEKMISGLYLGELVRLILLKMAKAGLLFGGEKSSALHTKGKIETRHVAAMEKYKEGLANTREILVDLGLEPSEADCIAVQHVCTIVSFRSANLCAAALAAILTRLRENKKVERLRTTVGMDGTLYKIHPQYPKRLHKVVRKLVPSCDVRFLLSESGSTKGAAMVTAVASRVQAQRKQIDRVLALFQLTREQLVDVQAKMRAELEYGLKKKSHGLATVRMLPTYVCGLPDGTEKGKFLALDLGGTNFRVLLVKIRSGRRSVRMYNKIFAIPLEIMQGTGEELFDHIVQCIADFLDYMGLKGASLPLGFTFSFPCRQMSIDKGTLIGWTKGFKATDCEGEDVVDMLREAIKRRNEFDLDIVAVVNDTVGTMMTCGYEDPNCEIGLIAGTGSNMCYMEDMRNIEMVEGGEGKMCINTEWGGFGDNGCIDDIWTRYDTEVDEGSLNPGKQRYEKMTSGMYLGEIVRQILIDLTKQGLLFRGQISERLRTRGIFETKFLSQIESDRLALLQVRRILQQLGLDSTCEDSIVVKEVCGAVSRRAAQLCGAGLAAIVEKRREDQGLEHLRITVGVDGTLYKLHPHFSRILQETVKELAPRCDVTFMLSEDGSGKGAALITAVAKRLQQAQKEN
Description: HKDC1 hexokinase inhibitors, dose response, biochemical, W721R variant (AID 504729). The format is functional.

Assay [4] relates to Escherichia coli. The assay is described as follows: microbe, parasite or virus in culture.
In assay [5] the test system is Escherichia coli. Description: microbe, parasite or virus in culture. This is another data set of the same source.
Assay [6] deals with HEK293. The assay is described as follows: cells. Type of assay: functional, cell-based. As to conditions: Homo sapiens.
Assay [7] addresses Nuclear receptor subfamily 0 group B member 1 (Homo sapiens, UniProt P51843). The assay is described as follows: Luminescence-based cell-based high throughput dose response assay for inhibitors of the orphan nuclear receptor subfamily 0, group B, member 1 (DAX1; NR0B1). [Related pubchem assays (depositor defined):AID504766, AID504790]. The format is functional.
Assay [8] has as its system HEK293. Description: cells. The note with it: Homo sapiens.
Assay [9] has as its system HEK293. Description: cells. The note with it: Homo sapiens. The source holds these as a separate data set.
The nature of assay [10]: Luminescence Cell-Based Dose Retest to Confirm Inhibitors of Cancer Stem Cells. [Related pubchem assays (depositor defined):AID2717, AID2721]. Type of assay: functional. As to conditions: Homo sapiens.
The target of assay [11] is T2, Microphthalmia-associated transcription factor (Homo sapiens, UniProt O75030).
T2 sequence (O75030 whole entry): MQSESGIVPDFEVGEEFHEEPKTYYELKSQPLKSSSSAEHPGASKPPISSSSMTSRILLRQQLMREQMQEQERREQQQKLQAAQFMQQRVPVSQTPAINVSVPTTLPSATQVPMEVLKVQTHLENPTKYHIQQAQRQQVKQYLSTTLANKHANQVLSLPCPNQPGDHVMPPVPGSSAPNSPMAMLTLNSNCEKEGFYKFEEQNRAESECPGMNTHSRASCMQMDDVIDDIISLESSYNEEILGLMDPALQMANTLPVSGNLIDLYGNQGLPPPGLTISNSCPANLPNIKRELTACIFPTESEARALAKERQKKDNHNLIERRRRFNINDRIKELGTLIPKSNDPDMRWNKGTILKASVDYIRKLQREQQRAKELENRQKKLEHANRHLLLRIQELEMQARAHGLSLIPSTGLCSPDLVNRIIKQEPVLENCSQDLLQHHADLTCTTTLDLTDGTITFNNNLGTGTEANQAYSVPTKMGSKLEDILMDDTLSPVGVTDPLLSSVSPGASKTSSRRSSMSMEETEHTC
Description: TRPM1 promoter luciferase signal decrease, dose response, MITF inhibitor project, cell-based, SK-MEL-5, cherry-picked, set 3 (AID 493073).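 Further: SK-MEL-5 melanoma cells with luciferase driven by the MITF target TRPM1 promoter.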 The format is functional.

For assay [12], the target named is T3, Replicative DNA helicase DnaB (Mycobacterium tuberculosis, UniProt P9WMR3).
T3 sequence (P9WMR3 whole entry): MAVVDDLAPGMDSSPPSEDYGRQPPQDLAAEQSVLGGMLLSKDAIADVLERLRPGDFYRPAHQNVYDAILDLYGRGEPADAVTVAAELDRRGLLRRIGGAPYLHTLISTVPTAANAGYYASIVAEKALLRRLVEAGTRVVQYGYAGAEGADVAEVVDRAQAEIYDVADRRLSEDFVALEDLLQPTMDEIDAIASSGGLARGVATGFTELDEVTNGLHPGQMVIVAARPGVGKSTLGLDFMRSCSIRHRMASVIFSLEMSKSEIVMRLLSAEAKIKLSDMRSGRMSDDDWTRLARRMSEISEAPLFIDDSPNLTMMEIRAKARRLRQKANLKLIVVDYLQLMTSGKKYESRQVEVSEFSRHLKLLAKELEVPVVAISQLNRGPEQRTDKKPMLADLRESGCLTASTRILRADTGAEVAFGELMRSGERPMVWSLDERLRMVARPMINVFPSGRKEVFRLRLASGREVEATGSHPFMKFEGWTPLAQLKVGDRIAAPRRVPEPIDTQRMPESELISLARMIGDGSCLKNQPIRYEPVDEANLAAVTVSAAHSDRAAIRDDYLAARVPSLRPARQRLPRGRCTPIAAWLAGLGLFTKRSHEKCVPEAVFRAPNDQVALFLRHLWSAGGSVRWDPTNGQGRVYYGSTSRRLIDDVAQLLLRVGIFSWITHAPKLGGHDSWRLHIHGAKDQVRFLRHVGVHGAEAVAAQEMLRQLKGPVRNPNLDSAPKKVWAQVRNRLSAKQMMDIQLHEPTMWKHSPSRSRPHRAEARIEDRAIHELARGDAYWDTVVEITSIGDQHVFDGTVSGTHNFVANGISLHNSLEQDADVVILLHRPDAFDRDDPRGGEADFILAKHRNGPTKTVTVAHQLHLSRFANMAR
The assay is described as follows: DnaB intein splicing inhibitors, dose response, biochemical, cell-free fluorescence (AID 449749). The format is functional.

The target of assay [13] is T4, Apoptotic protease-activating factor 1 (Homo sapiens, UniProt O14727).
T4 sequence (O14727 whole entry): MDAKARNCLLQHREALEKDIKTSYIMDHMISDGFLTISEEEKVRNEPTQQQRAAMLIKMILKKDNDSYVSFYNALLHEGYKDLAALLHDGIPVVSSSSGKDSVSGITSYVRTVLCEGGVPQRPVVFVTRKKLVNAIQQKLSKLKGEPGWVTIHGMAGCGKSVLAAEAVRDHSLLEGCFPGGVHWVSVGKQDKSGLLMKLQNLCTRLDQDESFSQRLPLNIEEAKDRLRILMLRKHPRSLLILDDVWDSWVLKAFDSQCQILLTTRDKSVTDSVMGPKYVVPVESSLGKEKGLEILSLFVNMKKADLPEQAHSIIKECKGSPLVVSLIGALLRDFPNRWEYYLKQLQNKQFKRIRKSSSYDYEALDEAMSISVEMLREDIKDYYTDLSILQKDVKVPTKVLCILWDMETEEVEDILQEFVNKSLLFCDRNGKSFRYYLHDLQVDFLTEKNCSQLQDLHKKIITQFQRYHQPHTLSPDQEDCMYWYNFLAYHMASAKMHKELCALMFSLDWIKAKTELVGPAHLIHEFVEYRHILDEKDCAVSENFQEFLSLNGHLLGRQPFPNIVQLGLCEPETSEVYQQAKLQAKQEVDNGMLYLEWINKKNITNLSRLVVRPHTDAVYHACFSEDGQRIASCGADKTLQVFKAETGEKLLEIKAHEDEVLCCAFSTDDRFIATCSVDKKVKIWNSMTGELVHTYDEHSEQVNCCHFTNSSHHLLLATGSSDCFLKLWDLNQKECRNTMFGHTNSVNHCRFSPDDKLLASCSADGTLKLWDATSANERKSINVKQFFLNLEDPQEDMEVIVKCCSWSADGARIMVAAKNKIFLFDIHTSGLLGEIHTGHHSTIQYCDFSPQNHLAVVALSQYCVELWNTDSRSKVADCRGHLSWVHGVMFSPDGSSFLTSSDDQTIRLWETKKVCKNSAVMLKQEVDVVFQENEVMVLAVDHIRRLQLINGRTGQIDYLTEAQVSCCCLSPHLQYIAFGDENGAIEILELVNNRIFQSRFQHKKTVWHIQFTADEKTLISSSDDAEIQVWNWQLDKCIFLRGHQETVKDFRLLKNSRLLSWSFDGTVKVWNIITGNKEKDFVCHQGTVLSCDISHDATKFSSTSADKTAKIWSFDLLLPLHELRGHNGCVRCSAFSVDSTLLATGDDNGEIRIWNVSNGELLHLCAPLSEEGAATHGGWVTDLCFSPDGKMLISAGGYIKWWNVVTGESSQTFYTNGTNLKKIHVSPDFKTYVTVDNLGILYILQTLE
Type of assay: functional.

The target in assay [14] is T5, Protein RecA (Mycobacterium tuberculosis, UniProt P9WHJ3).
T5 sequence (P9WHJ3 whole entry): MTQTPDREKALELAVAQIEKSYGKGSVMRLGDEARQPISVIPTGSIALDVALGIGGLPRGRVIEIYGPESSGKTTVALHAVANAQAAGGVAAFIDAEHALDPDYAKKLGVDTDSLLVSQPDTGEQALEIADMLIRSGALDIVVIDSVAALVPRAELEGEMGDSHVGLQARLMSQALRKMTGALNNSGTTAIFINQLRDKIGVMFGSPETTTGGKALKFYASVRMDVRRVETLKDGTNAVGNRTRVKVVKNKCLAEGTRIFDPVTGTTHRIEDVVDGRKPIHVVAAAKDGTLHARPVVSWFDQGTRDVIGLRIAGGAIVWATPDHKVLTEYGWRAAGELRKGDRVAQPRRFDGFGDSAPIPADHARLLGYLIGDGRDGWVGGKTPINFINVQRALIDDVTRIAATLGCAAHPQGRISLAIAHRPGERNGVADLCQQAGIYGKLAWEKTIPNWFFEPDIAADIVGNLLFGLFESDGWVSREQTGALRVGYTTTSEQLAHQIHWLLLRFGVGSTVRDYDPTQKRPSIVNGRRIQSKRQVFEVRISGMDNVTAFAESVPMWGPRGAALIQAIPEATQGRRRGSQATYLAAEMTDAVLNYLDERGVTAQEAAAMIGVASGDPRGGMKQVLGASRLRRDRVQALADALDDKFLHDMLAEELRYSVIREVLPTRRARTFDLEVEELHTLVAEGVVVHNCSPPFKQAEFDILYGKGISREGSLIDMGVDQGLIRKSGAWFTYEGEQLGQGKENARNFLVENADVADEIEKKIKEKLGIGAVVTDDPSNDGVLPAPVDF
The assay is described as follows: Fluorescence Cell-Free Homogeneous Dose Retest to Identify Inhibitors of RecA-Intein Splicing Activity. [Related pubchem assays (depositor defined):AID2097, AID2223, AID489010, AID492950]. The format is functional.

Assay [15] concerns A-375. Description: MITF: Counter assay: A375 proliferation Measured in Cell-Based System Using Plate Reader - 2084-03_Inhibitor_Dose_DryPowder_Activity. [Related pubchem assays (depositor defined):AID488944]. Type of assay: functional. The note with it: Homo sapiens.
In assay [16] the test system is INS1. Description: beta cell apoptosis inhibitors, cytokine rescue, dose response, luminescence, retest (AID 449756).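 Further: cell death triggered by IL-1 beta plus TNF-alpha plus IFN-gamma mixture; protective hits raise ATP signal compared with cytokine alone wells.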 The format is functional, cell-based. As to conditions: Rattus norvegicus.

Sequence of Nuclear receptor subfamily 0 group B member 1 (P51843 whole entry): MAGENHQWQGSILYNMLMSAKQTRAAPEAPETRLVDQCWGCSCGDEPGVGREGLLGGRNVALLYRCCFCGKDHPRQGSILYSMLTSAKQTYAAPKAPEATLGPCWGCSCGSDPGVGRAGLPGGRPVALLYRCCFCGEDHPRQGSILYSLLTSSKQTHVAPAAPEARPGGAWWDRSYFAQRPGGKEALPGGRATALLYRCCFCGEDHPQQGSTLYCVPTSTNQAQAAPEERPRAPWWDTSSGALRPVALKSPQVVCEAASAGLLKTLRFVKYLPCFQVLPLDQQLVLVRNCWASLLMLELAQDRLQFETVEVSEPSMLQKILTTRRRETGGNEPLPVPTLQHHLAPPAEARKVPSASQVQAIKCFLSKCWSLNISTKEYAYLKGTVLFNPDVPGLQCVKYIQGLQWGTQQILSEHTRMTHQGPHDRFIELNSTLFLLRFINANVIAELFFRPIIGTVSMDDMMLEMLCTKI

Consider `N=c1ccn2c(n1)O[C@H]1[C@@H](CO)[C@H](O)O[C@H]12`, for which the IC50 in assay [1] and in [2] was > 80 µM (inactive) in each case.

As for `CCC(C)C(N)C1=NC(C(=O)N[C@@H](CC(C)C)C(=O)N[C@H](CCC(=O)[O-])C(=O)N[C@H](C(=O)N[C@H]2CCCCNC(=O)[C@H](CC(N)=O)NC(=O)[C@@H](CC(=O)[O-])NC(=O)[C@H](Cc3c[nH]cn3)NC(=O)[C@@H](Cc3ccccc3)NC(=O)[C@H]([C@@H](C)CC)NC(=O)[C@@H](CCCN)NC2=O)[C@@H](C)CC)CS1.[Zn+2]` (stereo partly specified) (X1-L[dE]IK[dOrn]I[dF]H[dD]N; lactam 4-C), in assay [3], the IC50 is 2.69 µM (active). For the same compound, the AC50 in assay [4] is 38 µM (active); in [5], 184 µM (active).

Consider `CNC(=O)c1ncnnc1N(C)C(=O)NCc1ccccc1`, for which the IC50 in assay [6] and in assay [7] was > 67.5 µM (inactive) in each case.

In the case of `COc1ccc(Cn2nnc3c(O)nc(C(=O)NCCc4ccc(F)cc4)nc32)cc1OC`, the EC50 in assay [8] and in [9] was > 59.7 µM (inactive) each time.

Regarding `CCOC(=O)c1c(C)oc2c1C(=O)c1ccccc1C2=O`, the AC50 in assay [10] was 4.44 µM (active); in assay [11], 3.18 µM (active); in assay [12], 6.31 µM (active); in assay [15] it was 41.9 µM (active); in assay [16], 3.7 µM (active). Also, the IC50 in [13] was 16.1 µM (active). In addition, the EC50 in assay [14] is 13.3 µM (active).
